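Following 48 hours of exposure in 96-well plates, responses at five concentrations were used to interpolate endpoints linearly. The concentration for 50% growth inhibition is given as GI50.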 Active and inactive are the calls of the source. Cut-off read from the data, not from the text of the source: active = GI50 up to about 1.1 µM and inactive = higher.
Assays:
Experiment in all cases: NCI-60 cell line screen, 48 h
NCI-H23 = system: NCI-H23
OVCAR-8 = system: OVCAR-8
LOX IMVI = system: LOX IMVI
SK-MEL-2 = system: SK-MEL-2
A549 = system: A549
OVCAR-3 = system: OVCAR-3
HOP-92 = system: HOP-92
XF498 = system: XF498
EKVX = system: EKVX
SR = system: SR
SK-OV-3 = system: SK-OV-3
TK-10 = system: TK-10
M19-MEL = system: M19-MEL
HOP-18 = system: HOP-18
COLO 205 = system: COLO 205
LXFL 529 = system: LXFL 529
A498 = system: A498
SW-620 = system: SW-620
CAKI-1 = system: CAKI-1
KM-20L2 = system: KM-20L2
UACC-257 = system: UACC-257
NCI-H460 = system: NCI-H460
HOP-62 = system: HOP-62
SNB-75 = system: SNB-75
SN12C = system: SN12C
K562 = system: K562
KM12 = system: KM12
HCT-116 = system: HCT-116
SF-268 = system: SF-268
DMS-273 = system: DMS-273
UACC-62 = system: UACC-62
Malme-3M = system: Malme-3M
HL-60 = system: HL-60
DLD-1 = system: DLD-1
SNB-19 = system: SNB-19
SF-539 = system: SF-539
IGROV-1 = system: IGROV-1
786-0 = system: 786-0
HCT-15 = system: HCT-15
DMS-114 = system: DMS-114
SNB-78 = system: SNB-78
SK-MEL-28 = system: SK-MEL-28
OVCAR-5 = system: OVCAR-5
U-251 = system: U-251
HCC 2998 = system: HCC 2998
UO-31 = system: UO-31
SF-295 = system: SF-295
RXF 393 = system: RXF 393
NCI-H522 = system: NCI-H522
MOLT-4 = system: MOLT-4
M14 = system: M14
OVCAR-4 = system: OVCAR-4
ACHN = system: ACHN
CCRF-CEM = system: CCRF-CEM
HT-29 = system: HT-29
NCI-H226 = system: NCI-H226
SK-MEL-5 = system: SK-MEL-5
RPMI-8226 = system: RPMI-8226

Measured: GI50

CC(C)(C)c1cc([Si](C)(C)C)c(C#N)c([Si](C)(C)C)c1
inactive: NCI-H23 76.9 µM | OVCAR-8 > 100 µM | LOX IMVI 78.5 µM | SK-MEL-2 > 100 µM | A549 65.5 µM | OVCAR-3 > 100 µM | HOP-92 > 100 µM | XF498 24.2 µM | EKVX > 100 µM | SR 34.9 µM | SK-OV-3 > 100 µM | TK-10 > 100 µM | M19-MEL 43.2 µM | HOP-18 > 100 µM | COLO 205 51.3 µM | LXFL 529 > 100 µM | A498 > 100 µM | SW-620 > 100 µM | CAKI-1 > 100 µM | KM-20L2 > 100 µM | UACC-257 34.3 µM | NCI-H460 > 100 µM | HOP-62 > 100 µM | SNB-75 47.3 µM | SN12C > 100 µM | K562 > 100 µM | KM12 88.9 µM | HCT-116 54.8 µM | SF-268 41.7 µM | DMS-273 49.1 µM | UACC-62 60.5 µM | Malme-3M > 100 µM | HL-60 22 µM | DLD-1 > 100 µM | SNB-19 62.1 µM | SF-539 > 100 µM | IGROV-1 > 100 µM | 786-0 > 100 µM | DMS-114 33.8 µM | SNB-78 53.2 µM | SK-MEL-28 > 100 µM | OVCAR-5 > 100 µM | U-251 36.1 µM | HCC 2998 90.6 µM | UO-31 > 100 µM | SF-295 29.8 µM | RXF 393 36.6 µM | NCI-H522 46.6 µM | MOLT-4 37.2 µM | M14 > 100 µM | OVCAR-4 > 100 µM | ACHN 87.3 µM | CCRF-CEM 48.6 µM | HT-29 76.7 µM | NCI-H226 87.9 µM
> 100 µM: HCT-15

COc1ccc(N2C(=O)C3c4[nH]c5ccccc5c4C4CC(C)(C)CC(C)(C)C4C3C2=O)cc1 (stereo unspecified)
inactive: NCI-H23 13.8 µM | OVCAR-8 3.2 µM | SK-MEL-5 19.4 µM | A549 13.2 µM | HOP-92 11.9 µM | XF498 17.6 µM | EKVX 15.9 µM | SR 10.3 µM | SK-OV-3 17.3 µM | M19-MEL 15.1 µM | HOP-18 16.7 µM | COLO 205 8.81 µM | LXFL 529 13.3 µM | A498 14.5 µM | SW-620 20 µM | KM-20L2 29.3 µM | UACC-257 19.4 µM | HOP-62 16.7 µM | SNB-75 16.8 µM | SN12C 16 µM | K562 44.5 µM | HCT-116 13.5 µM | SF-268 16.4 µM | DMS-273 11 µM | UACC-62 14.4 µM | Malme-3M 16.4 µM | HL-60 42.5 µM | DLD-1 27 µM | SNB-19 23.7 µM | SF-539 12.6 µM | IGROV-1 22.9 µM | 786-0 12.9 µM | DMS-114 27.2 µM | SNB-78 21.4 µM | SK-MEL-28 14.1 µM | U-251 16.8 µM | HCC 2998 33.6 µM | RPMI-8226 31.8 µM | UO-31 26 µM | SF-295 8.05 µM | RXF 393 12.8 µM | NCI-H522 17.2 µM | MOLT-4 14.4 µM | M14 14.3 µM | OVCAR-4 10.2 µM | ACHN 14.9 µM | CCRF-CEM 69.7 µM | HT-29 26 µM | NCI-H226 14 µM
30.2 µM: HCT-15

Source: ChEMBL document CHEMBL1201862, “PubChem BioAssay data set” (2004)
